Structures can show the parent of a compound that is named as a salt. Where two headings read alike, the source gives them in different places.
How the values were obtained:
[1] = test system: SSAO activity in rat plasma and liver; assay: SSAO target engagement in rat plasma and liver; type: in vivo; details: for SSAO Activity (%) Liver 24 hour / SSAO Activity (%) Plasma 2 hour / SSAO Activity (%) Plasma 24 hour: mean ± SEM, n = 6
Experimental: The SSAO activity in rat plasma and liver tissues are measured using the MAO-Glo™ assay kit from Promega (V1402). The residual SSAO activity in rats after compound treatment is estimated by measuring the total amine oxidase activity in plasma or liver lysates that are insensitive to the presence of the MAO inhibitor Clogyline and Pargyline. Rats are administered the compound of Example 2 at the doses of 15, 3, 0.6, 0.12, 0.025, 0.005 mg/kg. The control group is administered with the same volume (2 ml/kg) of the dosing vehicle (hydroxyethyl cellulose 1% w/v, 0.25% Tween 80). Plasma and liver at 2 or 24 hours post compound treatment are harvested and stored at −78° C. until analysis. Tissue lysates are prepared by homogenization in a lysis buffer (20 mM HEPES, pH 7.4, 150 mM NaCl, 1 mM EDTA, 1 mM EGTA, 1% Triton X-100 and 1× Roche Complete protease inhibitor tablet). Tissue particles are removed by centrifugation at 12,000 rpm at 4° C. for 30 minutes. 40 μl of plasma or liver lysates is incubated with Clogyline (10 μM) and Pargyline (10 μM) for 20 minutes at room temperature before the addition of the luminogenic substrate (50 μM) for 60 minutes. The product generated is quantified according to the manufacture's procedure. The fraction of activity that is insensitive to the presence of the MAO inhibitors is used as the surrogate for the residual SSAO activity. The compound of Example 2 was evaluated in the protocol essentially as described above administered at various doses.

[2] = target: human recombinant SSAO (hSSAO) (Homo sapiens (Human), UniProt Q16853); assay: SSAO/VAP-1 in vitro activity, MAO-Glo assay, recombinant SSAO; type: biochemical; details: substrate 10 μM, mean ± SEM, read-out: hSSAO Inhib Rel IC50
Experimental: Amine oxidase activity of recombinant SSAO, MAOa, and MAOb isoforms are measured using the MAO-Glo™ assay kit from Promega (V1402). Test compounds (with DMSO as vehicle, 0.5% v/v for SSAO) and the enzyme are incubated for 10 mins at room temperature before the addition of the luminogenic substrate. The substrate concentration is 10 μM for human recombinant SSAO. The assays are conducted in a pH 7.4 buffer (50 mM HEPES, 120 mM NaCl, 5 mM KCl, 2 mM CaCl2, 1.4 mM MgCl2, 0.001% Tween-20) in a well-plate. Oxidation of the substrate is conducted for 2 hrs before the addition of detecting reagent according the manufacture's protocol. The IC50 value of the tested compounds is calculated by fitting the dose response curve using a 4-parameter non-linear regression routine.

[3] = test system: Male C57BL/6N mice fed 3H diet; assay: Mouse model of NASH and fibrosis induced by 3H diet; type: in vivo; details: for Hepatic inflammation Score (0-3) Left / Macrovesicular vaculation Score (0-3) Left / Perisinusoidal fibrosis Score (0-3) Left: left lobe; for Hepatic inflammation Score (0-3) Right / Macrovesicular vaculation Score (0-3) Right / Perisinusoidal fibrosis Score (0-3) Right: right lobe
Experimental: Male C57BL/6N mice are fed with D09100301 diet (Research Diets, 40% fat, 2% cholesterol, 24% fructose, (the, high fat, high cholesterol and high fructose, the “3H diet”) for 150 days. Each mouse is then singly housed after 5 days for an acclimation period. Plasma alanine aminotransferase (ALT) and cytokeratin 18 (CK18) are measured. After one week of recovery, the mice are randomized into 5 groups based on their ALT values, CK18 values, and body weight. […] Blood is collected from mice treated with the compound of Example 6 for 76 days 2 hours after the last dose. Compound levels in the plasma are analyzed by mass spectroscopy. […] At the completion of the study, the animals are sacrificed and their livers excised. Two sections of the left and right lobes are fixed in neutral buffered 10% formalin. Liver tissue slides are stained with hematoxylin and eosin (H&E), Sirius red, and Masson's Trichrome to prepare slides for pathological analysis. All specimens are examined microscopically and scored as a modified Brunt score NASH Activity Score. Scores are based on the grading scheme and end-points as described in Brunt E. M, et al., “Histopathology of nonalcoholic fatty liver disease,” World J. of Gastroenterol, 2010, 16(42), 5286-5296. Group means are then calculated for each individual end-point. The following endpoints are used to characterize the fast food model of NASH in mice as modified from NASH endpoints (See Brunt, E. M. “Histopathology of nonalcoholic fatty liver disease,” Clin Liver Dis., 2009, 13, 533-544 and Brunt, E. M, et al., “Nonalcoholic steatohepatitis: A proposal for grading and staging the histological lesions”, Am J Gastroenterology, 1999, 94(9), 2467-2474.

[4] = Plasma compound levels by mass spectroscopy in 3H diet mice; type: in vivo, mouse; details: for concentration at 2 h: male, C57BL/6N, plasma, read-out: Plasma Compound Level
Experimental: Male C57BL/6N mice are fed with D09100301 diet (Research Diets, 40% fat, 2% cholesterol, 24% fructose, (the, high fat, high cholesterol and high fructose, the “3H diet”) for 150 days. Each mouse is then singly housed after 5 days for an acclimation period. Plasma alanine aminotransferase (ALT) and cytokeratin 18 (CK18) are measured. After one week of recovery, the mice are randomized into 5 groups based on their ALT values, CK18 values, and body weight. […] Blood is collected from mice treated with the compound of Example 6 for 76 days 2 hours after the last dose. Compound levels in the plasma are analyzed by mass spectroscopy.

[5] = mouse 3H diet, 0.6 mg/kg once daily, mean ± SEM
[6] = mouse 3H diet, 0.6 mg/kg, mean ± SEM
[7] = mouse 3H diet, 2 mg/kg once daily, mean ± SEM
[8] = mouse 3H diet, 2 mg/kg, mean ± SEM
[9] = mouse 3H diet, 6 mg/kg once daily, mean ± SEM
[10] = mouse 3H diet, 6 mg/kg, mean ± SEM
[11] = mouse 3H diet, 20 mg/kg once daily, mean ± SEM
[12] = mouse 3H diet, 20 mg/kg, mean ± SEM

Sequence of human recombinant SSAO (hSSAO) (Q16853 whole entry, canonical isoform): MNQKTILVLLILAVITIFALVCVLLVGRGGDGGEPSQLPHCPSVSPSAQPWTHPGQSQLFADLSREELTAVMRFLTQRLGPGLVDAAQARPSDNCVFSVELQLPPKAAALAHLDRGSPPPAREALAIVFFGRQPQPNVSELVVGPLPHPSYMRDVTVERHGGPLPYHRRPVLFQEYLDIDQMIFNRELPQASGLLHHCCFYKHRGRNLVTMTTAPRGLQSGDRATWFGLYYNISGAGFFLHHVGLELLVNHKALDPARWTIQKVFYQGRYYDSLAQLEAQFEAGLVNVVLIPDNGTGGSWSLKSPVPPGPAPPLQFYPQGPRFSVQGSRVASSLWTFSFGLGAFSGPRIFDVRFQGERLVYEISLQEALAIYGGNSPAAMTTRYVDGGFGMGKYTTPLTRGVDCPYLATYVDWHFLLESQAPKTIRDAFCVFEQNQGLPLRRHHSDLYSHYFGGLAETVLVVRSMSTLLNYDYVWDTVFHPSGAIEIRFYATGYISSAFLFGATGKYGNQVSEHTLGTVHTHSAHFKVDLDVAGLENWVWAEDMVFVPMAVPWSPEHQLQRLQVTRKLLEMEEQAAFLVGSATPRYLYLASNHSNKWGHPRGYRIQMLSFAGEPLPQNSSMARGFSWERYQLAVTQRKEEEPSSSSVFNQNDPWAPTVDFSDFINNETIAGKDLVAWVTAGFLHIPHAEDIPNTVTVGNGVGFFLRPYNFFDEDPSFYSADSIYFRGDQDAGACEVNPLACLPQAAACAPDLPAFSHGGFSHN

Cl.Cl.NC/C(=C\F)COc1cnc(N2CCC(O)CC2)nc1 [Example 2, 1-[5-[(E)-2-(Aminomethyl)-3-fluoro-allyloxy]pyrimidin-2-yl]piperidin-4-ol Dihydrochloride]
SSAO Activity (%) Liver 24 hour ([1]; 0.005 mg/kg): 75 ± 18% | SSAO Activity (%) Plasma 2 hour ([1]; 0.005 mg/kg): 31 ± 3% | SSAO Activity (%) Plasma 24 hour ([1]; 0.005 mg/kg): 70 ± 7% | SSAO Activity (%) Liver 24 hour ([1]; 0.025 mg/kg): 68 ± 14% | SSAO Activity (%) Plasma 2 hour ([1]; 0.025 mg/kg): 21 ± 1% | SSAO Activity (%) Plasma 24 hour ([1]; 0.025 mg/kg): 55 ± 9% | SSAO Activity (%) Liver 24 hour ([1]; 0.12 mg/kg): 45 ± 8% | SSAO Activity (%) Plasma 2 hour ([1]; 0.12 mg/kg): 7 ± 1% | SSAO Activity (%) Plasma 24 hour ([1]; 0.12 mg/kg): 35 ± 4% | SSAO Activity (%) Liver 24 hour ([1]; 0.6 mg/kg): 16.2 ± 2.9% | SSAO Activity (%) Plasma 2 hour ([1]; 0.6 mg/kg): 4.3 ± 0.8% | SSAO Activity (%) Plasma 24 hour ([1]; 0.6 mg/kg): 16.3 ± 2.6% | SSAO Activity (%) Liver 24 hour ([1]; 3 mg/kg): 7.1 ± 1.7% | SSAO Activity (%) Plasma 2 hour ([1]; 3 mg/kg): 3.6 ± 1.0% | SSAO Activity (%) Plasma 24 hour ([1]; 3 mg/kg): 8.8 ± 1.3% | SSAO Activity (%) Liver 24 hour ([1]; 15 mg/kg): 9.6 ± 2.6% | SSAO Activity (%) Plasma 2 hour ([1]; 15 mg/kg): −0.6 ± 0.3% | SSAO Activity (%) Plasma 24 hour ([1]; 15 mg/kg): 6.6 ± 1.8% | SSAO activity in rat plasma and liver ([1]; doses 0.005-15 mg/kg): dose-dependently inhibits

COC1CCN(c2ncc(OC/C(=C/F)CN)cn2)CC1 [Example 3, (E)-3-Fluoro-2-[[2-(4-methoxy-1-piperidyl)pyrimidin-5-yl]oxymethyl]prop-2-en-1-amine, Dihydrochloride]
IC50 [2]: 12 ± 1 nM

CO[C@H]1CCN(c2ncc(OC/C(=C/F)CN)cn2)C1 [Example 5, (E)-3-Fluoro-2-[[2-[(3S)-3-methoxypyrrolidin-1-yl]pyrimidin-5-yl]oxymethyl]prop-2-en-1-amine]
IC50 [2]: 32 ± 7 nM

Cl.Cl.NC/C(=C\F)COc1cnc(N2CC[C@H](O)C2)nc1 [Example 6, (3 S)-1-[5-[(E)-2-(Aminomethyl)-3-fluoro-allyloxy]pyrimidin-2-yl]pyrrolidin-3-ol; Dihydrochloride]
hepatic inflammation ([3]; 20 mg/kg): significant decrease | macrovesicular vaculation ([3]; 20 mg/kg): significant decrease | perisinusoidal fibrosis ([3]; 20 mg/kg): significant decrease | triglyceride levels in blood ([3]; 6 and 20 mg/kg): decreased | ALT ([3]; all groups of treated mice): significant decrease | ALT [3, 5]: 530 ± 45 IU/L | Plasma TG [3, 5]: 55 ± 6 mg/dL | Hepatic inflammation Score (0-3) Left [3, 6]: 2.6 ± 0.1 | Macrovesicular vaculation Score (0-3) Left [3, 6]: 2.5 ± 0.1 | Perisinusoidal fibrosis Score (0-3) Left [3, 6]: 2.4 ± 0.2 | Hepatic inflammation Score (0-3) Right [3, 6]: 2.5 ± 0.1 | Macrovesicular vaculation Score (0-3) Right [3, 6]: 2.6 ± 0.1 | Perisinusoidal fibrosis Score (0-3) Right [3, 6]: 1.9 ± 0.2 | ALT [3, 7]: 483 ± 44 IU/L | Plasma TG [3, 7]: 70 ± 11 mg/dL | Hepatic inflammation Score (0-3) Left [3, 8]: 2.5 ± 0.1 | Macrovesicular vaculation Score (0-3) Left [3, 8]: 2.5 ± 0.1 | Perisinusoidal fibrosis Score (0-3) Left [3, 8]: 2.5 ± 0.2 | Hepatic inflammation Score (0-3) Right [3, 8]: 2.6 ± 0.1 | Macrovesicular vaculation Score (0-3) Right [3, 8]: 2.7 ± 0.1 | Perisinusoidal fibrosis Score (0-3) Right [3, 8]: 1.8 ± 0.2 | ALT [3, 9]: 495 ± 25 IU/L | Plasma TG [3, 9]: 46 ± 4 mg/dL | Hepatic inflammation Score (0-3) Left [3, 10]: 2.5 ± 0.2 | Macrovesicular vaculation Score (0-3) Left [3, 10]: 2.9 ± 0.1 | Perisinusoidal fibrosis Score (0-3) Left [3, 10]: 2.6 ± 0.2 | Hepatic inflammation Score (0-3) Right [3, 10]: 2.6 ± 0.2 | Macrovesicular vaculation Score (0-3) Right [3, 10]: 2.7 ± 0.1 | Perisinusoidal fibrosis Score (0-3) Right [3, 10]: 2.1 ± 0.3 | ALT [3, 11]: 466 ± 37 IU/L | Plasma TG [3, 11]: 45 ± 5 mg/dL | Hepatic inflammation Score (0-3) Left [3, 12]: 2.1 ± 0.1 | Macrovesicular vaculation Score (0-3) Left [3, 12]: 2.4 ± 0.2 | Perisinusoidal fibrosis Score (0-3) Left [3, 12]: 1.9 ± 0.2 | Hepatic inflammation Score (0-3) Right [3, 12]: 2.1 ± 0.1 | Macrovesicular vaculation Score (0-3) Right [3, 12]: 2.3 ± 0.1 | Perisinusoidal fibrosis Score (0-3) Right [3, 12]: 1.5 ± 0.2 | IC50 [2]: 52 ± 5 nM | concentration at 2 h ([4]; mouse, 2 mg/kg once daily, 76 days, 2 hours after last dose, mean ± SEM): 163 ± 21 ng/mL | concentration at 2 h ([4]; mouse, 6 mg/kg once daily, 76 days, 2 hours after last dose, mean ± SEM): 560 ± 29 ng/mL | concentration at 2 h ([4]; mouse, 20 mg/kg once daily, 76 days, 2 hours after last dose, mean ± SEM): 2120 ± 219 ng/mL | Plasma Compound Level ([4]; mouse, 0.6 mg/kg once daily, 76 days, 2 hours after last dose, mean ± SEM): 66. ± 5 ng/ml | plasma compound levels ([4]; treated mice, all doses): dose-dependent increase

From US10287270B2, “Amino pyrimidine SSAO inhibitors” (ELI LILLY AND COMPANY, priority 2016, dated 2019)
